In patent publication US20260077047A1, “CANCER THERAPY” (TURBINE SIMULATED CELL TECHNOLOGIES LTD, priority 2022, published 2026):

Columns and labels:
Experiment in all cases: ATM inhibition viability assay (CTG) on cells ± NEK-1 knockout
Format in all cases: cell-based
Conditions in all cases: AZD1390 10 μM-0.00152 μM, 7 days, normalized to DMSO
[1] = tested on: HCC1806 cells ± NEK-1 knockout
Method: (§1) • i. Adhered cells were washed with 1 mL DPBS and trypsinised by addition of trypsin to 0.05% w/v and incubation under standard conditions. • ii. 1 mL cell culture medium was added to the detached cells to inhibit trypsin and suspended cells were centrifuged at 200×g for 5 minutes at room temperature. • iii. The supernatant was discarded and the cells were resuspended in 1 ml cell culture medium and exact cell number was determined using hemocytometer after Trypan blue staining. • iv. Cells were seeded according to table 5 in 90 μl/well in opaque 96-well plates in triplicate. Cells were grown overnight under standard conditions in complete culture medium (see 1c) […].
(§2) • v. Cells were treated with AZD1390 over the concentration range 10 μM-0.00152 μM, prepared by 10-point 3× serial dilutions from a 10 mM DMSO stock. Cells were incubated under standard conditions with the compounds for 7 days with refresh of the medium and drug twice a week. • vi. After the 7 day incubation, CGT assays were performed to assess cell viability.
(§3) Data showing cell viability for NEK1 knockout cell lines and NT cell lines are shown in FIGS. 4A-D. Data are normalized relative to cells treated with DMSO only.

[2] = tested on: Daoy cells ± NEK-1 knockout
Method: as §1, §2, §3

[3] = tested on: HSC-2 cells ± NEK-1 knockout
Method: as §1, §2, §3

Measured: effect on cell viability when combined with a NEK-1 knockout

CC(C)n1c(=O)n(C)c2cnc3cc(F)c(-c4ccc(OCCCN5CCCCC5)nc4)cc3c21 [AZD1390]
synergistic effect: [1] | [2] | [3]
